Assay: stability in solution of the free hydroxamic acid (observed during purification)
Assay type: physicochemical
Details: degradation during lengthy column elution and solvent evaporation on pilot scale
Excerpt: The purity of hydroxycarbamoylpiperazine of formula VIII obtained after part (i) ranged from 84% to 92%. The observed yields were between 63% and 78%. This hydroxycarbamoylpiperazine was of insufficient purity to produce pure magnesium salt/complex of formula VI suitable for pharmaceutical use. The direct conversion of hydroxycarbamoylpiperazine of formula VIII to the magnesium salt/complex of formula VI by omitting parts (ii) and (iii) yielded the magnesium salt/complex with the purity ranging from 96% to 97%. We discovered that this problem could be solved by first obtaining and separating a benzhydrylpiperazine complex of formula IX prior to the conversion to the magnesium salt/complex of […]. Yields for the process that included parts (i)-(iv) ranged from 81% to 86%. The purity of the magnesium salt/complex of […] was at least 99%; specifically, between 99.4% and 99.7%.

stability in solution: poor stability in solution
SMILES: COCCOC(=O)N1CCN(S(=O)(=O)c2cc(F)c(Oc3ccc(Cl)cc3)c(F)c2)[C@@H](C(=O)NO)C1 [formula VIII, 4-(4-(4-chlorophenoxy)-3,5-difluorophenylsulfonyl)-3-(hydroxycarbamoyl)piperazine-1-carboxylic acid, (R)-2-methoxyethyl ester]
